# According to paper doi:10.1101/2025.05.30.657074, “A covalent recognition strategy enables conspecific mate identification” (bioRxiv, 2025):
# Tests used:
# [1] = test system: OR1_F161A; experiment: GCaMP6 calcium flux assay, BmOR1/Orco mutant F161A; type: cell-based, Bombyx mori
# Text: (§1) The first insect pheromone system characterized at the molecular level is that of Bombyx mori, a moth long known to navigate towards its mate guided solely by pheromone cues with impressive navigation accuracy. Two PR/Orco complexes, BmOR1/BmOrco and BmOR3/BmOrco, have been linked to the behavioral responses to pheromones in B. mori (Figure 1A). The conspecific pheromone, bombykol, is detected through BmOR1/Orco and leads to sexual attraction. The heterospecific pheromone, bombykal, is sensed through BmOR3/Orco, and leads to suppression of mating behavior. We first characterized the extent to which both PR/Orco complexes are selective towards their cognate ligands. […] In this assay, ligand-activation of the heteromeric ion channel complexes by addition of either bombykol or bombykal leads to calcium influx, read out as GCaMP6 fluorescence changes that can be monitored in real-time and dose-dependent manner using a fluorescence plate reader. […]
# (§2) HEK293T cells were maintained at 37°C with 5% carbon dioxide and grown in high glucose DMEM enhanced with 10% FBS and 1% GlutaMAX (Gibco). […] Cells were kept at 37°C for 18-20 hours before being used for fluorescence plate reading. […]
# (§3) The kinetics of the fluorescence change upon odorant addition were measured using the FDSS/µcell kinetic plate Imager (Hamamatsu, C13299). […]
# [2] = test system: OR1_I343A; experiment: GCaMP6 calcium flux assay, BmOR1/Orco mutant I343A; type: cell-based, Bombyx mori
# Text: as §1, §2, §3
# [3] = target: OR1_M344A (Bombyx mori, UniProt Q5WA61, M344A); experiment: GCaMP6 calcium flux assay, BmOR1/Orco mutant M344A; type: cell-based
# Text: (§4) The first insect pheromone system characterized at the molecular level is that of Bombyx mori, a moth long known to navigate towards its mate guided solely by pheromone cues with impressive navigation accuracy. Two PR/Orco complexes, BmOR1/BmOrco and BmOR3/BmOrco, have been linked to the behavioral responses to pheromones in B. mori (Figure 1A). The conspecific pheromone, bombykol, is detected through BmOR1/Orco and leads to sexual attraction. The heterospecific pheromone, bombykal, is sensed through BmOR3/Orco, and leads to suppression of mating behavior. We first characterized the extent to which both PR/Orco complexes are selective towards their cognate ligands. We used a previously established calcium flux functional assay where we co-transfected HEK293 cells with either BmOR1 or BmOR3, along with the coreceptor, BmOrco (here on referred to as Orco), and the fluorescent calcium reporter, GCaMP6 (Figure 1C). In this assay, ligand-activation of the heteromeric ion channel complexes by addition of either bombykol or bombykal leads to calcium influx, read out as GCaMP6 fluorescence changes that can be monitored in real-time and dose-dependent manner using a fluorescence plate reader. […]
# as §2
# (§5) On the day of the GCaMP6 assay, Bravo (Agilent), a versatile liquid handler was used to prepare both the odorant plate and the assay plate (transfected cell plate) prior to the fluorescence readout using the FDSS/µcell kinetic plate Imager (Hamamatsu, C13299).
# (§6) For the odorant plate, the DMSO dissolved stock solutions were diluted in 19.8 µL of Reading buffer (20 mM HEPES/NaOH (pH 7.4), 1× HBSS (Gibco), 3 mM Na2CO3, 1 mM MgSO4, and 5 mM CaCl2) to give a final concentration ranging from 3.16 nM to 1 mM with 1% DMSO. […]
# as §3
# [4] = target: OR1_N93A (Bombyx mori, UniProt Q5WA61, N93A); experiment: GCaMP6 calcium flux assay, BmOR1/Orco mutant N93A; type: cell-based
# Text: as §4, §2, §5, §6, §3
# [5] = target: OR3_K58S (Bombyx mori, UniProt Q5FBE0, K58S); experiment: GCaMP6 calcium flux assay, BmOR3/Orco mutant K58S; type: cell-based
# Text: (§7) The first insect pheromone system characterized at the molecular level is that of Bombyx mori, a moth long known to navigate towards its mate guided solely by pheromone cues with impressive navigation accuracy. Two PR/Orco complexes, BmOR1/BmOrco and BmOR3/BmOrco, have been linked to the behavioral responses to pheromones in B. mori (Figure 1A). The conspecific pheromone, bombykol, is detected through BmOR1/Orco and leads to sexual attraction. The heterospecific pheromone, bombykal, is sensed through BmOR3/Orco, and leads to suppression of mating behavior. We first characterized the extent to which both PR/Orco complexes are selective towards their cognate ligands. We used a previously established calcium flux functional assay where we co-transfected HEK293 cells with either BmOR1 or BmOR3, along with the coreceptor, BmOrco (here on referred to as Orco), and the fluorescent calcium reporter, GCaMP6 (Figure 1C). In this assay, ligand-activation of the heteromeric ion channel complexes by addition of either bombykol or bombykal leads to calcium influx, read out as GCaMP6 fluorescence changes that can be monitored in real-time and dose-dependent manner using a fluorescence plate reader. […] But we also found both PR/Orco complexes to be somewhat promiscuous: both complexes are activated by their non-cognate pheromones (bombykal for BmOR1/Orco and bombykol for BmOR3/Orco) with a response that is ~10 fold smaller than their cognate pheromones. […] Instead, two complexes with reciprocal specificities enable an unequivocal response to bombykal and bombykol across all concentrations, ensuring the behavioral accuracy needed for mate selection.
# (§8) The assay was performed similarly to method descriptions in previous studies.
# (§9) All DNA constructs used in this assay were cloned into a modified pME18 vector that contains a SV40 promotor.
# (§10) Each transfection condition (per well) contained a total of 300 ng of plasmids in 1:1:1 ratio of the GCaMP6, Orco, and the corresponding OR plasmid that was diluted in 4.8 uL of OptiMEM (Gibco) along with 0.1 uL of P3000. The mixture was incubated for 5 minutes and then further incubated for 20 minutes after being mixed with Lipofectamine 3000 (Invitrogen) diluted in OptiMEM. This mixture was scaled accordingly to batch transfect 50-100 wells per construct per plate.
# (§11) HEK293T cells were maintained at 37°C with 5% carbon dioxide and grown in high glucose DMEM enhanced with 10% FBS and 1% GlutaMAX (Gibco). Cells were detached with TrypLE Express Enzyme and resuspended in FluoroBrite DMEM (Gibco) with 10% FBS and 1% GlutaMAX (Gibco) to a concentration of 5 × 10^5 cells/ml. Cells were combined with each transfection condition and added to 2x16 wells of a 384-well plate (Grenier CELLSTAR). Cells were kept at 37°C for 18-20 hours before being used for fluorescence plate reading.
# (§12) Odorant plates were prepared using D300e (Hewlett Packard), a digital, non-contact dispenser. Briefly, stock solutions of bombykol and bombykal were prepared in DMSO and plated onto 384-plates (Greiner, Catalog #784201) in a titrating volume to obtain a concentration series ranging between 316 nM and 100 mM with a final volume of 0.2 µL.
# (§13) The odorant plates were kept at −20 °C until usage.
# as §5
# as §6, with “DMSO. For the cell plate, the FluoroBrite DMEM (Gibco) was exchanged out with the” for “DMSO.”
# as §3
# [6] = target: OR3_T91N (Bombyx mori, UniProt Q5FBE0, T91N); experiment: GCaMP6 calcium flux assay, BmOR3/Orco mutant T91N; type: cell-based
# Text: as §4, §2, §5, §6, §3
# [7] = target: OR1_N93T (Bombyx mori, UniProt Q5WA61, N93T); experiment: GCaMP6 calcium flux assay, BmOR1/Orco mutant N93T; type: cell-based
# Text: as §4, §2, §5, §6, §3
# [8] = target: OR1_L340A (Bombyx mori, UniProt Q5WA61, L340A); experiment: GCaMP6 calcium flux assay, BmOR1/Orco mutant L340A; type: cell-based
# Text: as §4, §2, §5, §6, §3
# [9] = target: OR1_S60A (Bombyx mori, UniProt Q5WA61, S60A); experiment: GCaMP6 calcium flux assay, BmOR1/Orco mutant S60A; type: cell-based
# Text: as §4, §2, §5, §6, §3
# [10] = target: OR1_L342A (Bombyx mori, UniProt Q5WA61, L342A); experiment: GCaMP6 calcium flux assay, BmOR1/Orco mutant L342A; type: cell-based
# Text: as §4, §2, §5, §6, §3
# [11] = test system: B. mori male moths; parameters: method as in PMID 24744736, PMID 22836825; settings: conspecific male moths; cited from earlier work
# [12] = target: OR3_T91A (Bombyx mori, UniProt Q5FBE0, T91A); experiment: GCaMP6 calcium flux assay, BmOR3/Orco mutant T91A; type: cell-based
# Text: as §4, §2, §5, §6, §3
# [13] = target: OR3_K58Q (Bombyx mori, UniProt Q5FBE0, K58Q); experiment: GCaMP6 calcium flux assay, BmOR3/Orco mutant K58Q; type: cell-based
# Text: as §7, §8, §9, §10, §11, §12, §13, §5
# as §6, with “DMSO. For the cell plate, the FluoroBrite DMEM (Gibco) was exchanged out with the” for “DMSO.”
# as §3
# [14] = target: BmOR3/Orco (Bombyx mori, UniProt Q5FBE0); experiment: GCaMP6 calcium flux assay, wild-type BmOR3/Orco; type: cell-based
# Text: as §7, §8, §9, §10, §11, §12, §13, §5
# as §6, with “DMSO. For the cell plate, the FluoroBrite DMEM (Gibco) was exchanged out with the” for “DMSO.”
# as §3
# [15] = target: BmOR1/Orco (Bombyx mori, UniProt Q5WA61); experiment: GCaMP6 calcium flux assay, wild-type BmOR1/Orco; type: cell-based
# Text: as §7, §8, §9, §10, §11, §12, §13, §5
# as §6, with “DMSO. For the cell plate, the FluoroBrite DMEM (Gibco) was exchanged out with the” for “DMSO.”
# as §3
# [16] = target: OR3_K58A (Bombyx mori, UniProt Q5FBE0, K58A); experiment: GCaMP6 calcium flux assay, BmOR3/Orco mutant K58A; type: cell-based
# Text: as §7, §8, §9, §10, §11, §12, §13, §5
# as §6, with “DMSO. For the cell plate, the FluoroBrite DMEM (Gibco) was exchanged out with the” for “DMSO.”
# as §3
# Sequence of OR1_L340A (Q5WA61 entry or part of it L340A): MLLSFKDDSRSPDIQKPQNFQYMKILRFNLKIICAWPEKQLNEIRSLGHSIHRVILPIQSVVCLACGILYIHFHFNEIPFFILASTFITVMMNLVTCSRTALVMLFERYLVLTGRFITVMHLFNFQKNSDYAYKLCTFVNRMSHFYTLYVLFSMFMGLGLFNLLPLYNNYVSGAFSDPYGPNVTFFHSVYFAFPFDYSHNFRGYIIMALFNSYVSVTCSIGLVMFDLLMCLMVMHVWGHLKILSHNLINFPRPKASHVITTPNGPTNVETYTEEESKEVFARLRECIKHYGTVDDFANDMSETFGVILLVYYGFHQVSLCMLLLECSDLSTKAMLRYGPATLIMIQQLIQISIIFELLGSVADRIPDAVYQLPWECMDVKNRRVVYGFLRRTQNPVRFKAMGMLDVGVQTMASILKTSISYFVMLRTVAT
# Sequence of OR1_L340A (Q7YT34 entry or part of it, stated change not applied, further chain): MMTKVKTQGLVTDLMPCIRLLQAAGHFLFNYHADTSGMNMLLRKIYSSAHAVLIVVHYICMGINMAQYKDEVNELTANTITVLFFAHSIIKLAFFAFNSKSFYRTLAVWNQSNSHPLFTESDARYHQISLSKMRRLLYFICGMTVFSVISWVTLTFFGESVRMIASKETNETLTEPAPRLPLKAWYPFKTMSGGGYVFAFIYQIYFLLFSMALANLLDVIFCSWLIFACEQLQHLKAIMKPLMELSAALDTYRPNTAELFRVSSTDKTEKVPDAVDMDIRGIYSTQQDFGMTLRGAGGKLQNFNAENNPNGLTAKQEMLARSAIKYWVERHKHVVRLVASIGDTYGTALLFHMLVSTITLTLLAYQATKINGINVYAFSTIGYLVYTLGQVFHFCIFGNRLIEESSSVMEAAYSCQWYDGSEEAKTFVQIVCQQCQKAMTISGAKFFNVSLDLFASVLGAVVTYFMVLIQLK
# Sequence of OR3_K58S (Q5FBE0 entry or part of it K58S): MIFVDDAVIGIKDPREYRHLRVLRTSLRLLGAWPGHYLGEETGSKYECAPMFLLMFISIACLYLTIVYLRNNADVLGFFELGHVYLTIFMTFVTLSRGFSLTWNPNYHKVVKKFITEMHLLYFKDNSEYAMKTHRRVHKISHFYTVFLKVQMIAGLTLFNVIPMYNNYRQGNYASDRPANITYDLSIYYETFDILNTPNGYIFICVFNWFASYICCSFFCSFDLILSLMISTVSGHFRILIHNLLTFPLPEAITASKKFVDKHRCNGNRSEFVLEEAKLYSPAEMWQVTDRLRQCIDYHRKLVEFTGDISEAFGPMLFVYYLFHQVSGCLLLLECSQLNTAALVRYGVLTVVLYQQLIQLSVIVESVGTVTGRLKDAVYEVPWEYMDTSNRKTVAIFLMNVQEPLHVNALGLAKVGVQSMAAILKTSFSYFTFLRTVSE
# Sequence of OR3_K58S (Q7YT34 entry or part of it, stated change not applied, further chain): as the sequence (Q7YT34 entry or part of it, stated change not applied, further chain) above
# Sequence of OR1_N93A (Q5WA61 entry or part of it N93A): as the sequence (Q5WA61 entry or part of it L340A) above, with N93A, A340L counted along it
# Sequence of OR1_N93A (Q7YT34 entry or part of it, stated change not applied, further chain): as the sequence (Q7YT34 entry or part of it, stated change not applied, further chain) above
# Sequence of BmOR3/Orco (Q5FBE0 entry or part of it): as the sequence (Q5FBE0 entry or part of it K58S) above, with S58K counted along it
# Sequence of BmOR3/Orco (Q7YT34 entry or part of it, further chain): as the sequence (Q7YT34 entry or part of it, stated change not applied, further chain) above
# Sequence of OR1_M344A (Q5WA61 entry or part of it M344A): as the sequence (Q5WA61 entry or part of it L340A) above, with A340L, M344A counted along it
# Sequence of OR1_M344A (Q7YT34 entry or part of it, stated change not applied, further chain): as the sequence (Q7YT34 entry or part of it, stated change not applied, further chain) above
# Sequence of OR3_K58Q (Q5FBE0 entry or part of it K58Q): as the sequence (Q5FBE0 entry or part of it K58S) above, with S58Q counted along it
# Sequence of OR3_K58Q (Q7YT34 entry or part of it, stated change not applied, further chain): as the sequence (Q7YT34 entry or part of it, stated change not applied, further chain) above
# Sequence of OR3_K58A (Q5FBE0 entry or part of it K58A): as the sequence (Q5FBE0 entry or part of it K58S) above, with S58A counted along it
# Sequence of OR3_K58A (Q7YT34 entry or part of it, stated change not applied, further chain): as the sequence (Q7YT34 entry or part of it, stated change not applied, further chain) above
# Sequence of OR1_S60A (Q7YT34 entry or part of it, stated change not applied): as the sequence (Q7YT34 entry or part of it, stated change not applied, further chain) above
# Sequence of OR1_S60A (Q5WA61 entry or part of it S60A): as the sequence (Q5WA61 entry or part of it L340A) above, with S60A, A340L counted along it
# Sequence of OR3_T91A (Q7YT34 entry or part of it, stated change not applied): as the sequence (Q7YT34 entry or part of it, stated change not applied, further chain) above
# Sequence of OR3_T91A (Q5FBE0 entry or part of it T91A): as the sequence (Q5FBE0 entry or part of it K58S) above, with S58K, T91A counted along it
# Sequence of BmOR1/Orco (Q7YT34 entry or part of it): as the sequence (Q7YT34 entry or part of it, stated change not applied, further chain) above
# Sequence of BmOR1/Orco (Q5WA61 entry or part of it): as the sequence (Q5WA61 entry or part of it L340A) above, with A340L counted along it
# Sequence of OR1_L342A (Q7YT34 entry or part of it, stated change not applied): as the sequence (Q7YT34 entry or part of it, stated change not applied, further chain) above
# Sequence of OR1_L342A (Q5WA61 entry or part of it L342A): as the sequence (Q5WA61 entry or part of it L340A) above, with A340L, L342A counted along it
# Sequence of OR1_N93T (Q5WA61 entry or part of it N93T): as the sequence (Q5WA61 entry or part of it L340A) above, with N93T, A340L counted along it
# Sequence of OR1_N93T (Q7YT34 entry or part of it, stated change not applied, further chain): as the sequence (Q7YT34 entry or part of it, stated change not applied, further chain) above
# Sequence of OR3_T91N (Q5FBE0 entry or part of it T91N): as the sequence (Q5FBE0 entry or part of it K58S) above, with S58K, T91N counted along it
# Sequence of OR3_T91N (Q7YT34 entry or part of it, stated change not applied, further chain): as the sequence (Q7YT34 entry or part of it, stated change not applied, further chain) above
smiles,measurement,setting,value
"CCC/C=C\C=C\CCCCCCCCCO [Bombykol, bombykol]",Max (ΔF/F ± SE),[1],0.04 ± 0.02 ΔF/F
same,Max (ΔF/F ± SE),[2],0.14 ± 0.01 ΔF/F
same,EC50,[3],1000 nM
same,Hill Coefficient (n± SE),[3]; OR1_M344A,1.5 ± 0.3
same,Max (ΔF/F ± SE),[3]; OR1_M344A,0.84 ± 0.03 ΔF/F
same,EC50,[4],5010 nM
same,Hill Coefficient (n± SE),[4]; OR1_N93A,1.0 ± 0.3
same,Max (ΔF/F ± SE),[4]; OR1_N93A,0.63 ± 0.04 ΔF/F
same,EC50,[5],3160 nM
same,Hill Coefficient (n± SE),[5]; OR3_K58S,1.2 ± 0.3
same,Max (ΔF/F ± SE),[5]; OR3_K58S,0.42 ± 0.07 ΔF/F
same,EC50,[6],1000 nM
same,Hill Coefficient (n± SE),[6]; OR3_T91N,1.7 ± 0.2
same,Max (ΔF/F ± SE),[6]; OR3_T91N,0.64 ± 0.07 ΔF/F
same,EC50,[7],1000 nM
same,Hill Coefficient (n± SE),[7]; OR1_N93T,2.0 ± 0.3
same,Max (ΔF/F ± SE),[7]; OR1_N93T,1.02 ± 0.08 ΔF/F
same,EC50,[8],2000 nM
same,Hill Coefficient (n± SE),[8]; OR1_L340A,2.0 ± 0.3
same,Max (ΔF/F ± SE),[8]; OR1_L340A,0.48 ± 0.08 ΔF/F
same,EC50,[9],501 nM
same,Hill Coefficient (n± SE),[9]; OR1_S60A,2.1 ± 0.3
same,Max (ΔF/F ± SE),[9]; OR1_S60A,1.1 ± 0.1 ΔF/F
same,EC50,[10],794 nM
same,Hill Coefficient (n± SE),[10]; OR1_L342A,1.4 ± 0.2
same,Max (ΔF/F ± SE),[10]; OR1_L342A,0.87 ± 0.08 ΔF/F
same,behavioral response,[11],aggressive attraction behavior
same,EC50,[12],3980 nM
same,Hill Coefficient (n± SE),[12]; OR3_T91A,0.9 ± 0.3
same,Max (ΔF/F ± SE),[12]; OR3_T91A,0.31 ± 0.05 ΔF/F
same,EC50,[13],794 nM
same,Hill Coefficient (n± SE),[13]; OR3_K58Q,5 ± 3
same,Max (ΔF/F ± SE),[13]; OR3_K58Q,0.66± 0.06 ΔF/F
same,EC50,"[14]; EC50, HEK293 cells co-transfected with BmOR3, BmOrco, GCaMP6",1300 nM
same,EC50,"[14]; Mean (-log EC50 ± SE), wild-type BmOR3/Orco",1290 nM
same,"response to non-cognate pheromone, fold smaller than cognate pheromone",[14]; bombykol vs cognate bombykal at BmOR3/Orco,~ 10 fold
same,Hill Coefficient (n± SE),[14]; wild-type BmOR3/Orco,1.0 ± 0.1
same,Max (ΔF/F ± SE),"[14]; wild-type BmOR3/Orco, ΔF/F at highest ligand concentration",0.61 ± 0.04 ΔF/F
same,EC50,"[15]; EC50, HEK293 cells co-transfected with BmOR1, BmOrco, GCaMP6",270 nM
same,EC50,"[15]; Mean (-log EC50 ± SE), wild-type BmOR1/Orco",269 nM
same,Hill Coefficient (n± SE),[15]; wild-type BmOR1/Orco,1.6 ± 0.1
same,Max (ΔF/F ± SE),"[15]; wild-type BmOR1/Orco, ΔF/F at highest ligand concentration",0.98 ± 0.07 ΔF/F
same,EC50,[16],251 nM
same,Hill Coefficient (n± SE),[16]; OR3_K58A,15 ± 6
same,Max (ΔF/F ± SE),[16]; OR3_K58A,0.15 ± 0.06 ΔF/F
